Assay results reported in ChEMBL document CHEMBL4004838, “Design and synthesis of novel phenyl -1, 4-beta-carboline-hybrid molecules as potential anticancer agents” (Eur J Med Chem, 2017).

Columns and labels:
[1] = tested on: PC-3; assay: Growth inhibition of human PC3 cells incubated for 48 hrs by sulforhodamine B assay; assay type: functional; conditions: PC-3, 48 h
[2] = tested on: SW-620; assay: Growth inhibition of human SW620 cells assessed as cell growth at 0.1 uM incubated for 48 hrs by sulforhodamine B assay relative to control; assay type: functional; conditions: SW-620, 48 h, read-out: Activity
[3] = tested on: CCRF-CEM; assay: Growth inhibition of human CCRF-CEM cells assessed as cell growth at 0.01 uM incubated for 48 hrs by sulforhodamine B assay relative to control; assay type: functional; conditions: read-out: Activity
[4] = tested on: M14; assay: Growth inhibition of human M14 cells assessed as cell growth at 1 uM incubated for 48 hrs by sulforhodamine B assay relative to control; assay type: functional; conditions: M14, 48 h, read-out: Activity
[5] = tested on: SK-MEL-28; assay: Growth inhibition of human SK-MEL-28 cells assessed as cell growth at 1 uM incubated for 48 hrs by sulforhodamine B assay relative to control; assay type: functional; conditions: SK-MEL-28, 48 h, read-out: Activity
[6] = tested on: K562; assay: Growth inhibition of human K562 cells incubated for 48 hrs by sulforhodamine B assay; assay type: functional; conditions: K562, 48 h
[7] = tested on: HCT-15; assay: Growth inhibition of human HCT15 cells incubated for 48 hrs by sulforhodamine B assay; assay type: functional; conditions: HCT-15, 48 h
[8] = tested on: UACC-257; assay: Growth inhibition of human UACC257 cells assessed as cell growth at 1 uM incubated for 48 hrs by sulforhodamine B assay relative to control; assay type: functional; conditions: UACC-257, 48 h, read-out: Activity
[9] = tested on: NCI/ADR-RES; assay: Growth inhibition of human NCI-ADR-RES cells incubated for 48 hrs by sulforhodamine B assay; assay type: functional
[10] = tested on: Hs-578T; assay: Growth inhibition of human Hs 578T cells assessed as cell growth at 100 uM incubated for 48 hrs by sulforhodamine B assay relative to control; assay type: functional; conditions: read-out: Activity
[11] = tested on: IGROV-1; assay: Growth inhibition of human IGROV1 cells assessed as cell growth at 0.01 uM incubated for 48 hrs by sulforhodamine B assay relative to control; assay type: functional; conditions: IGROV-1, 48 h, read-out: Activity
[12] = tested on: RPMI-8226; assay: Growth inhibition of human RPMI8226 cells assessed as cell growth at 1 uM incubated for 48 hrs by sulforhodamine B assay relative to control; assay type: functional; conditions: RPMI-8226, 48 h, read-out: Activity
[13] = tested on: HCC 2998; assay: Growth inhibition of human HCC2998 cells assessed as cell growth at 100 uM incubated for 48 hrs by sulforhodamine B assay relative to control; assay type: functional; conditions: HCC 2998, 48 h, read-out: Activity
[14] = tested on: UACC-257; assay: Growth inhibition of human UACC257 cells incubated for 48 hrs by sulforhodamine B assay; assay type: functional; conditions: UACC-257, 48 h
[15] = tested on: UO-31; assay: Growth inhibition of human UO31 cells assessed as cell growth at 0.01 uM incubated for 48 hrs by sulforhodamine B assay relative to control; assay type: functional; conditions: UO-31, 48 h, read-out: Activity
[16] = tested on: Malme-3M; assay: Growth inhibition of human MALME-3M cells assessed as cell growth at 100 uM incubated for 48 hrs by sulforhodamine B assay relative to control; assay type: functional; conditions: read-out: Activity
[17] = tested on: SK-MEL-2; assay: Growth inhibition of human SK-MEL-2 cells incubated for 48 hrs by sulforhodamine B assay; assay type: functional; conditions: SK-MEL-2, 48 h
[18] = tested on: LOX IMVI; assay: Growth inhibition of human LOXIMVI cells incubated for 48 hrs by sulforhodamine B assay; assay type: functional
[19] = tested on: HOP-92; assay: Growth inhibition of human HOP92 cells assessed as cell growth at 0.1 uM incubated for 48 hrs by sulforhodamine B assay relative to control; assay type: functional; conditions: HOP-92, 48 h, read-out: Activity
[20] = tested on: BT-549; assay: Growth inhibition of human BT549 cells incubated for 48 hrs by sulforhodamine B assay; assay type: functional; conditions: BT-549, 48 h
[21] = tested on: T47D; assay: Growth inhibition of human T47D cells assessed as cell growth at 0.1 uM incubated for 48 hrs by sulforhodamine B assay relative to control; assay type: functional; conditions: read-out: Activity
[22] = tested on: MOLT-4; assay: Growth inhibition of human MOLT4 cells incubated for 48 hrs by sulforhodamine B assay; assay type: functional; conditions: MOLT-4, 48 h
[23] = tested on: HT-29; assay: Growth inhibition of human HT-29 cells assessed as cell growth at 100 uM incubated for 48 hrs by sulforhodamine B assay relative to control; assay type: functional; conditions: HT-29, 48 h, read-out: Activity
[24] = tested on: KM12; assay: Growth inhibition of human KM12 cells assessed as cell growth at 1 uM incubated for 48 hrs by sulforhodamine B assay relative to control; assay type: functional; conditions: KM12, 48 h, read-out: Activity
[25] = target: Albumin (Bos taurus, UniProt P02769); assay: Binding affinity to Bovine serum albumin assessed as at 0.10 to 1 uM by UV-Visible spectrophotometric method; assay type: ADME; conditions: cattle, isolated protein
[26] = tested on: SF-539; assay: Growth inhibition of human SF539 cells assessed as cell growth at 0.1 uM incubated for 48 hrs by sulforhodamine B assay relative to control; assay type: functional; conditions: SF-539, 48 h, read-out: Activity
[27] = tested on: SR; assay: Growth inhibition of human SR cells assessed as cell growth at 0.1 uM incubated for 48 hrs by sulforhodamine B assay relative to control; assay type: functional; conditions: read-out: Activity
[28] = tested on: NCI-H322M; assay: Growth inhibition of human NCI-H322M cells incubated for 48 hrs by sulforhodamine B assay; assay type: functional
[29] = read-out: LC50 (the source's name)
[30] = read-out: pLC50 (the source's name) (converted)

Sequence of Albumin (P02769 whole entry): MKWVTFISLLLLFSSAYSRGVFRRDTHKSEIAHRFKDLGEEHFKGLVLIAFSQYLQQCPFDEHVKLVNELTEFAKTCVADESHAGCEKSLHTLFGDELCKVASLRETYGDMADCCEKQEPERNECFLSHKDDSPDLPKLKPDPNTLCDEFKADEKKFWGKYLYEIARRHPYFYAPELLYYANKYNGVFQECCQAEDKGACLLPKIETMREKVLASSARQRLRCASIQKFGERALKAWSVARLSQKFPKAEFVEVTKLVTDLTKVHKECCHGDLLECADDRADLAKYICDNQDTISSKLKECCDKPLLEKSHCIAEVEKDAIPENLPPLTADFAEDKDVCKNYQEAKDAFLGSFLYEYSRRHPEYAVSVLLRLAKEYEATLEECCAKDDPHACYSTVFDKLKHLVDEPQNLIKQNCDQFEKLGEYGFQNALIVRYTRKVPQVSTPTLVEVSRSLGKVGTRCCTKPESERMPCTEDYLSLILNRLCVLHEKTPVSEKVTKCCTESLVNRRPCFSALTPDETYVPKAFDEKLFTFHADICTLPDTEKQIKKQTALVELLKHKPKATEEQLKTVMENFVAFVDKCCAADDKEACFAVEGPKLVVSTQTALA

c1ccc2[nH]c(-c3ccc(-c4nccc5c4[nH]c4ccccc45)cc3)nc2c1
GI50 ([1]; read-out: GI50): 8.59 µM | CC50 [1, 29]: 6.68 µM | GI50 ([1]; read-out: pGI50 (converted)): 8.51 µM | CC50 [1, 30]: 66.1 µM | TGI ([1]; read-out: pTGI (converted)): 25.1 µM | growth at 0.1 µM [2]: 103% | growth at 0.01 µM [3]: 102% | growth at 1 µM [4]: 92% | growth at 1 µM [5]: 102% | GI50 ([6]; read-out: GI50): 2.33 µM | CC50 [6, 29]: 4.24 µM | TGI ([6]; read-out: TGI): 5.47 µM | GI50 ([6]; read-out: pGI50 (converted)): 2.34 µM | CC50 [6, 30]: 42.7 µM | TGI ([6]; read-out: pTGI (converted)): 5.5 µM | GI50 ([7]; read-out: GI50): 2.22 µM | LC50 ([7]; read-out: LC50): 3 µM | TGI ([7]; read-out: TGI): 5.61 µM | GI50 ([7]; read-out: pGI50 (converted)): 2.24 µM | LC50 ([7]; read-out: pLC50 (converted)): 30.2 µM | TGI ([7]; read-out: pTGI (converted)): 5.62 µM | growth at 1 µM [8]: 96% | GI50 ([9]; read-out: GI50): 3.5 µM | CC50 [9, 29]: > 1 µM | GI50 ([9]; read-out: pGI50 (converted)): 3.47 µM | CC50 ([9]; read-out: pLC50 (converted)): > 100 µM | TGI ([9]; read-out: pTGI (converted)): 15.1 µM | growth at 100 µM [10]: 46% | growth at 0.01 µM [11]: 99% | growth at 1 µM [12]: 106% | growth at 100 µM [13]: 76% | GI50 ([14]; read-out: GI50): 1.83 µM | CC50 [14, 29]: 6.73 µM | TGI ([14]; read-out: TGI): 3.5 µM | CC50 [14, 30]: 6.76 µM | growth at 0.01 µM [15]: 89% | growth at 100 µM [16]: 72% | GI50 ([17]; read-out: GI50): 1.99 µM | CC50 [17, 29]: 9.45 µM | TGI ([17]; read-out: TGI): 4.34 µM | GI50 ([17]; read-out: pGI50 (converted)): 2 µM | CC50 [17, 30]: 9.55 µM | TGI ([17]; read-out: pTGI (converted)): 4.37 µM | GI50 ([18]; read-out: GI50): 1.67 µM | TGI ([18]; read-out: TGI): 3.82 µM | GI50 ([18]; read-out: pGI50 (converted)): 1.66 µM | TGI ([18]; read-out: pTGI (converted)): 3.8 µM | growth at 0.1 µM [19]: 93% | GI50 ([20]; read-out: GI50): 2.12 µM | CC50 [20, 29]: 7.21 µM | TGI ([20]; read-out: TGI): 5.42 µM | GI50 ([20]; read-out: pGI50 (converted)): 2.14 µM | CC50 [20, 30]: 72.4 µM | TGI ([20]; read-out: pTGI (converted)): 5.37 µM | growth at 0.1 µM [21]: 89% | GI50 ([22]; read-out: GI50): 2.32 µM | CC50 [22, 29]: 7.51 µM | TGI ([22]; read-out: TGI): 6.11 µM | GI50 ([22]; read-out: pGI50 (converted)): 2.29 µM | CC50 [22, 30]: 75.9 µM | TGI ([22]; read-out: pTGI (converted)): 6.17 µM | growth at 100 µM [23]: 64% | growth at 1 µM [24]: 89% | Activity [25]: Active | growth at 0.1 µM [26]: 98% | growth at 0.1 µM [27]: 93% | GI50 ([28]; read-out: GI50): 2.86 µM | CC50 [28, 29]: 4.41 µM | TGI ([28]; read-out: TGI): 8.9 µM | GI50 ([28]; read-out: pGI50 (converted)): 2.88 µM | CC50 [28, 30]: 43.7 µM | TGI ([28]; read-out: pTGI (converted)): 8.91 µM
